Experimental data: patent EP0399834B1, “1,2,4-Triazole derivatives, their preparation and their use for treating hypertension or respiratory tract disorders” (Beecham Group p.l.c., priority 1989, dated 1990)

System: Spontaneously hypertensive rats
Assay: Antihypertensive activity: systolic blood pressure by tail cuff method
Assay type: in vivo
Conditions: maximum at 1-4 hours post dose
Description: Systolic blood pressures were recorded by a modification of the tail cuff method described by I.M. Claxton, M.G. Palfreyman, R.H. Poyser, R.L. Whiting, European Journal of Pharmacology, 37, 179 (1976). A W+W BP recorder, model 8005 was used to display pulses. Prior to all measurements rats were placed in a heated environment (33.5 ± 0.5 °C) before transfer to a restraining cage. Each determination of blood pressure was the mean of at least 6 readings. Spontaneously hypertensive rats (ages 12-18 weeks) with systolic blood pressures >180 mmHg were considered hypertensive.

Cn1ncnc1N[C@@H]1c2cc(C#N)ccc2OC(C)(C)[C@H]1O (relative stereo) [Example E2, trans-N⁵-4-[6-cyano-3,4-dihydro-2,2-dimethyl-2H-benzopyran-3-ol]amino-1-methyl-1H-1,2,4-triazole] was tested, and the “% b.p. fall” value (Dose 0.3 mg/kg) was 22%.

In the case of Cc1nc(N[C@@H]2c3cc(C#N)ccc3OC(C)(C)[C@H]2O)n(C)n1 (relative stereo) [Example E4, trans-N⁵-4-[6-Cyano-3,4-dihydro-2,2-dimethyl-2H-benzopyran-3-ol]amino-1,3-dimethyl-1H-1,2,4-triazole], the “% b.p. fall” value (Dose 1.0 mg/kg) is reported as 22%.

In the case of Cn1nc(N)nc1N[C@@H]1c2cc(C#N)ccc2OC(C)(C)[C@H]1O (relative stereo) [Example E1, N⁵-[trans-4-(6-Cyano-2,3-dihydro-2,2-dimethyl-2H-benzopyran-3-ol)]-1-methyl-1H-1,2,4-triazole-3,5-diamine], the “% b.p. fall” value (Dose 0.1 mg/kg) is reported as 30%.

With Cn1nc(N)nc1N[C@@H]1c2cc(C#N)ccc2OC(C)(C)[C@H]1O (relative stereo) [Example E7, (3S,4R)-N⁵-[trans-4-(6-cyano-3,4-dihydro-2,2-dimethyl-2H-1-benzopyran-3-ol)]-1-methyl-1H-1,2,4-triazole-3,5-diamine] the “% b.p. fall” value (Dose 0.05 mg/kg) was 45%.
